Experimental data taken from the NIST ThermoML archive (doi:10.1016/j.jct.2012.11.020).

Test: xn = mol fraction of the nth substance listed
Details: 100 kPa, Liquid; for mass density: Vibrating tube method; for electrical conductivity: Alternating current cell with electrodes; for viscosity: Cone and plate viscometry

C1CC[NH2+]C1.O=[N+]([O-])[O-] [pyrrolidinium nitrate] + CC1COC(=O)O1
Details	electrical conductivity [S/m]	mass density [kg/m3]	viscosity [mPa·s]
313.15 K, x1 = 0.62	–	1209.1	–
313.15 K, x1 = 0.7	–	1210.4	–
313.15 K, x1 = 0.8	–	1212	–
313.15 K, x1 = 1	–	1213.1	–
318.15 K, x1 = 0.1	0.65	–	–
318.15 K, x1 = 0.22	1.13	–	–
318.15 K, x1 = 0.3	1.9	–	–
318.15 K, x1 = 0.5	3.15	–	–
318.15 K, x1 = 0.8	3.81	–	–
323.15 K, x1 = 0.1	0.704	1181.1	2.24
323.15 K, x1 = 0.22	1.23	1187.7	3.04
323.15 K, x1 = 0.3	2.06	1191.7	3.75
323.15 K, x1 = 0.4	–	1195.7	4.91
323.15 K, x1 = 0.5	3.43	1198.6	6.07
323.15 K, x1 = 0.62	–	1201.4	7.57
323.15 K, x1 = 0.7	–	1203	9.33
323.15 K, x1 = 0.8	4.18	1204	10.97
323.15 K, x1 = 1	7.17	1205.5	16.7
328.15 K, x1 = 0.1	0.759	–	–
328.15 K, x1 = 0.22	1.33	–	–
328.15 K, x1 = 0.3	2.22	–	–
328.15 K, x1 = 0.5	3.72	–	–
328.15 K, x1 = 0.8	4.57	–	–
333.15 K, x1 = 0.1	0.816	1171.2	1.91
333.15 K, x1 = 0.22	1.44	1178.5	2.57
333.15 K, x1 = 0.3	2.39	1182.9	3.14
333.15 K, x1 = 0.4	–	1187.4	4.06
333.15 K, x1 = 0.5	4.01	1190.6	4.97
333.15 K, x1 = 0.62	–	1193.8	6.15
333.15 K, x1 = 0.7	–	1195.6	7.61
333.15 K, x1 = 0.8	4.97	1196.5	8.83
333.15 K, x1 = 1	8.51	1197.2	13.3
338.15 K, x1 = 0.1	0.874	–	–
338.15 K, x1 = 0.22	1.54	–	–
338.15 K, x1 = 0.3	2.56	–	–
338.15 K, x1 = 0.5	4.32	–	–
338.15 K, x1 = 0.8	5.38	–	–
343.15 K, x1 = 0.1	0.932	1161.4	1.65
343.15 K, x1 = 0.22	1.66	1169.3	2.2
343.15 K, x1 = 0.3	2.73	1174.2	2.68
343.15 K, x1 = 0.4	–	1179.1	3.44
343.15 K, x1 = 0.5	4.62	1182.7	4.16
343.15 K, x1 = 0.62	–	1186.2	5.19
343.15 K, x1 = 0.7	–	1188	6.42
343.15 K, x1 = 0.8	5.8	1189.5	7.91
343.15 K, x1 = 1	–	1190.2	11.17
344.95 K, x1 = 1	9.3	–	–
348.15 K, x1 = 0.1	0.992	–	–
348.15 K, x1 = 0.22	1.77	–	–
348.15 K, x1 = 0.3	2.91	–	–
348.15 K, x1 = 0.5	4.93	–	–
348.15 K, x1 = 0.8	6.24	–	–
353.15 K, x1 = 0.1	1.05	1151.6	1.45
353.15 K, x1 = 0.22	1.88	1160.1	1.91
353.15 K, x1 = 0.3	3.09	1165.4	2.32
353.15 K, x1 = 0.4	–	1170.8	2.95
353.15 K, x1 = 0.5	5.24	1174.9	3.54
353.15 K, x1 = 0.62	–	1178.7	4.3
353.15 K, x1 = 0.7	–	1180	5.2
353.15 K, x1 = 0.8	6.68	1181.5	6.35
353.15 K, x1 = 1	–	1182	9.28
353.65 K, x1 = 1	10.5	–	–
358.15 K, x1 = 0.1	1.11	–	–
358.15 K, x1 = 0.22	1.99	–	–
358.15 K, x1 = 0.3	3.19	–	–
358.15 K, x1 = 0.5	5.55	–	–
358.15 K, x1 = 0.8	7.12	–	–
362.15 K, x1 = 0.3	3.35	–	–
363.15 K, x1 = 0.5	5.83	–	–
363.15 K, x1 = 0.8	7.57	–	–
